Reference: paper PMC12073248, “Tyrosinase Inhibitors Among Flora of Lubelskie Region—Application of Bio-Chromatographic Approach and Zebrafish Model in Bioactivity Screening of Plant Material” (Molecules, 2025)

target: T1, mushroom tyrosinase (Agaricus bisporus, UniProt C7FF04); assay: Spectrophotometric tyrosinase inhibition assay with L-DOPA as substrate; type: biochemical; conditions: standards 0.015 to 5.0 mg/mL
T1 sequence (C7FF04 1-392): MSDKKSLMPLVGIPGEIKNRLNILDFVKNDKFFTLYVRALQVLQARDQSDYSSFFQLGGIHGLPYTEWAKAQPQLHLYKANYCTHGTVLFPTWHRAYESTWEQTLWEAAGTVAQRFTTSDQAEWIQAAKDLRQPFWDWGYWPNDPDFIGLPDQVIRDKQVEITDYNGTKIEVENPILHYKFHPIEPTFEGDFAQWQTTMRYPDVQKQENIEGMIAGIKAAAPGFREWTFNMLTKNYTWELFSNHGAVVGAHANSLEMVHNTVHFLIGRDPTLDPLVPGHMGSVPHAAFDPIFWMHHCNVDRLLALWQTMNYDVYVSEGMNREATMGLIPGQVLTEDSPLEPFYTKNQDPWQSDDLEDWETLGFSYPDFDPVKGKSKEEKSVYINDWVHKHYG
Method: The inhibitory properties of the extracts against tyrosinase were evaluated using in an in vitro assay with the mushroom tyrosinase enzyme and L-DOPA as a substrate (Sigma Aldrich, St. Louis, MO, USA). The assay was performed based on the method by Uchida and colleagues [43]. Briefly, 100 µL of 100 mM phosphate buffer (pH 6.8) and 20 µL of the diluted extracts of studied plants (1 mg/mL solution in DMSO) were pipetted into a 96 well microwell. Afterwards, 20 μL of the mushroom tyrosinase (500 U/mL) dissolved in phosphate buffer (pH 6.8) was added to each microwell and the mixture was pre-incubated for 10 min at room temperature. After incubation, 80 µL of 8 mM L-DOPA was added and the reaction was initiated and sustained at 25 °C. After 20 min, the absorbance was measured at 450 nm using a microplate reader Promega GloMax Explorer GM 3510 (Madison, MO, USA). The control sample (with 100% tyrosinase activity) contained the appropriate volume of the solvent (100 µL buffer plus 20 µL DMSO) instead of the extract. In both assays, the dopachrome formation was measured spectrophotometrically at λ = 450 nm, using a Promega microplate reader. The obtained values were corrected by the absorbance value of the background that was measured for the extracts without the mushroom tyrosinase and L-DOPA. Each sample was analyzed in three independent repetitions. […]

Compound	IC50 [µM]
COc1cc(/C=C/C(=O)O)ccc1O [ferulic acid, Ferulic acid]	0.484

target: T1, mushroom tyrosinase; assay: Bio-chromatographic assay: HPLC-ESI-QTOF-MS/MS of extract with and without tyrosinase; type: binding; conditions: chemometric comparison, p < 0.001

Compound	Presence among m/z features differentiating extract before and after tyrosinase treatment
O=C(O)CC(OC(=O)/C=C/c1ccc(O)c(O)c1)C(=O)O (centres unmarked) [caffeoylmalic acid, Caffeoylmalic acid]	present on the list of the differentiating molecular features
O=C(/C=C/c1ccc(O)cc1)O[C@@H](C(=O)O)[C@@H](O)C(=O)O [coumaroyl-tartaric acid, p-Coumaroyltartaric acid]	present on the list of the differentiating molecular features
O=C(O)[C@]1(O)C[C@@H](O)[C@@H](O)[C@H](O)C1 [quinic acid, Quinic acid]	present on the list of the differentiating molecular features
COc1cc(/C=C/C(=O)O)cc(OC)c1O [sinapic acid, Sinapic acid]	present on the list of the differentiating molecular features
Isopropylmalic acid	present on the list of the differentiating molecular features
Syringetin glucoside	visible in the list of differentiating signals

target: T1, mushroom tyrosinase; assay: as above; type: binding; conditions: aglycons in M. recutita extract; minute content, matrix effect
Method: For the identification of single components responsible for interactions with tyrosinase enzymes, a bio-chromatographic assay was performed. For this purpose, two 0.5 mL portions of 1 mg/mL 50% EtOH extract of chamomile dissolved in water each were transferred to an Eppendorf vial of 2 mL. The sample coded as sample A was mixed with 0.5 mL of carbonate buffer prepared by dissolving 120 mg Na2CO3 and 12.5 mg NaHCO3 in 1000 mL of water and later diluted 40 times, whereas sample B was mixed with 0.5 mL of tyrosinase enzyme (500 U/mL) in the same carbonate buffer and diluted 40 times as sample A was.
Both samples A and B were filtered through nylon syringe filters (0.1 µm pore size) into autosampler vials and analyzed using an HPLC-ESI-QTOF-MS/MS instrument. The test was performed in triplicate. During the analysis of recorded data, the obtained chromatograms were subtracted from each other in the Mass Hunter Workstation Program to highlight the changes visible under the influence of the enzyme, and some of the potentially active components were tentatively identified thanks to high-resolution mass measurement, recorded MS/MS fragmentation patterns, and comparison with open mass databases (Metlin, HMDB, Mass Bank). Both injections—with and without the enzyme—were also compared using the Mass Profiler Professional Program (Agilent Technologies, Santa Clara, CA, USA). For this purpose, molecular feature extraction was carried out using the Profinder program v. 10.0.02 (Agilent Technologies, Santa Clara, CA, USA) to obtain a list of m/z values, retention times, and peak areas from the recorded injections, which were exported in profinder archive and detailed CSV formats for subsequent chemometric comparison. The data were filtered based on criteria including a mass tolerance of 10 ppm, retention time variation of 0.3 min, and a minimum peak area of 1% of the highest signal. The chemometric analysis performed directly within the program yielded 802 entities in positive ion mode and 715 in negative ion mode (p < 0.05), in a one-way ANOVA test with asymptotic p-value computation and Benjamini–Hochberg multiple testing correction.

Compound	Inhibitory properties in the bio-chromatographic assay
O=c1cc(-c2ccc(O)cc2)oc2cc(O)cc(O)c12 [apigenin, Apigenin]	did not show inhibitory properties
O=c1cc(-c2ccc(O)c(O)c2)oc2cc(O)cc(O)c12 [luteolin, Luteolin]	did not show inhibitory properties

same assay, conditions: mass chromatograms with and without enzyme

Compound	Peak height after reaction with tyrosinase
O=c1c(O[C@@H]2OC[C@H](O)[C@H](O)[C@H]2O)c(-c2ccc(O)cc2)oc2cc(O)cc(O)c12 [kaempferol arabinoside, Kaempferol-3-O-alpha-L-arabinoside]	marked decrease in the peak height
O=C(O)CC(=O)OC[C@H]1O[C@@H](Oc2c(-c3ccc(O)cc3)oc3cc(O)cc(O)c3c2=O)[C@H](O)[C@@H](O)[C@@H]1O [kaempferol malonylglucoside, Kaempferol 3-(6″-malonylglucoside)]	marked decrease in the peak height

same assay, conditions: negative ion mode; negative peak = decrease in intensity on reaction with the enzyme

Compound	Peak in subtracted chromatogram (extract with enzyme minus extract)
O=C(O)CC(O)(CC(=O)O)C(=O)O [citric acid, Citric acid]	Large negative peaks
O=C(O)[C@H](O)[C@@H](O)[C@H](O)[C@H](O)CO [gluconic acid, Gluconic acid]	Large negative peaks
O=C(O)CC(O)C(=O)O (centres unmarked) [malic acid, Malic acid]	Large negative peaks
Feruloyl hexose	Large negative peaks
Feruloyl-glucose isomers	leading negative peak
Protocatechuoylglucose [protocatechuoyl-glucose]	visible negative peak
